From patent US11306080B2, “Crystalline form of a BACE inhibitor, compositions, and use” (Merck Sharp & Dohme Corp., priority 2017, dated 2022)
Entries after “also recorded” stand apart in the source; their conditions may differ.

What was measured:
Assay type in all cases: physicochemical
[1] = 4 week open dish accelerated chemical stability of 12 mg tablets, analyzed using HPLC; settings: 40° C./75% RH
Description: To assess the chemical stability of Crystalline Form II of verubecestat in the tablet formulation, a 4 week open dish accelerated stability experiment was performed at a controlled temperature and humidity. Identical measurements were made to Crystalline Form I of verubecestat, which Form I is described in WO2016025364 for comparison. […] At the end of two weeks and of four weeks, tablets were analyzed using HPLC. The data obtained are reported in the following table, where “Hyd1” and “Hyd2” indicate observed degradation product: […]

[2] = BCS (Biopharmaceutics Classification System) designation; settings: listed as Crystalline Form II of Verubecestat
[3] = Thermodynamic stability by competitive slurry experiments in various solvent systems, resultant form by PXRD; settings: slurried in various solvents for an extended period of time at a controlled temperature
Description: The thermodynamic stability of Crystalline Form II of Verubecestat was assessed using competitive slurry experiments in various solvent systems. Crystalline Form I of Verubecestat, obtained using the procedures set out in WO2016025364, and Crystalline Form II of verubecestat material obtained as described above were slurried in various solvents for an extended period of time and at a controlled temperature. At the end of the experiments, the solvent was removed and the remaining crystalline material were evaluated using Powder X-ray Diffraction (PXRD) to confirm the resultant form.

SMILES	Assay (% LC) ([1]; 2 weeks)	Assay (% LC) ([1]; 4 weeks)	Assay (% LC) ([1]; time point 0)	Degradation Product (%) Hyd1 ([1]; time point 0)	Degradation Product (%) Hyd2 ([1]; time point 0)	Degradation Product (%) Total ([1]; time point 0)	BCS class [2]	Form remaining after competitive slurry of Form I and Form II (thermodynamic stability) [3]
CN1C(N)=N[C@](C)(c2cc(NC(=O)c3ccc(F)cn3)ccc2F)CS1(=O)=O [Crystalline Form II, N-[3-[(5R)-3-amino-5,6-dihydro-2,5-dimethyl-1,1-dioxido-2H-1,2,4-thiadiazin-5-yl]-4-fluorophenyl]-5-fluoro-2-pyridinecarboxamide]	104.6 % LC	102.4 % LC	104.3 % LC	— (“—”means not more than 0.05%)	— (“—”means not more than 0.05%)	— (“—”means not more than 0.05%)	Class I; also recorded: Class 1	the only form remaining
CN1C(=N)N[C@](C)(c2cc(NC(=O)c3ccc(F)cn3)ccc2F)CS1(=O)=O [Crystalline Form I, verubecestat, reference compound]	98.5 % LC	97.4 % LC	98.5 % LC	— (“—”means not more than 0.05%)	— (“—”means not more than 0.05%)	— (“—”means not more than 0.05%)	–	–
